From patent US20250042887A1, “GLYCOGEN SYNTHASE KINASE-3 (GSK3) INHIBITOR COMPOUNDS FOR USE AS ANTIVIRAL AGENTS” (priority 2021, published 2025)
Where two headings read alike, the source gives them in different places. Where no end group is shown, it is not given here. [ ]: non-standard residue; d: D form. pT = C[C@@H](OP(=O)(O)O)[C@H](N)C(=O)O; pS = N[C@@H](COP(=O)(O)O)C(=O)O

What was measured:
[1] = system: HCoV-229E; experiment: High-content screen of GSK3β-focused library in HCoV-229E infected Huh-7.5.1 cells (intracellular dsRNA); format: cell-based, human coronavirus 229E (HCoV-229E); conditions: Human coronavirus 229E, single dose of 10 μM, Z′ 0.7
[2] = system: SARS-CoV-2; experiment: High-content screen of GSK3β-focused library in SARS-CoV-2 infected Huh-7.5.1 cells (dsRNA or nucleocapsid); format: cell-based; conditions: for inhibition at 10 µM: Severe acute respiratory syndrome coronavirus 2, single dose of 10 μM, Huh-7.5.1 cells; for Activity (SARS-CoV-2): see TABLE A
[3] = system: SARS-CoV-2; experiment: Dose-response of SARS-CoV-2 viral load (intracellular N protein) in Huh-7.5.1 cells; format: cell-based; conditions: Severe acute respiratory syndrome coronavirus 2, Huh-7.5.1, Huh-7.5.1 cells, intracellular N protein; read-out: ED50 (SARS-CoV-2)
[4] = system: HCoV-229E; experiment: Dose-response of HCoV-229E viral load (dsRNA) in Huh-7.5.1 cells; format: cell-based, human coronavirus 229E (HCoV-229E); conditions: Human coronavirus 229E, read-out: ED50 (HCoV-229E)
[5] = system: Huh-7.5.1 cells; conditions: single dose of 10 μM
Procedure: High content screening methodology and parameters. Monitoring of the total number of cells (based on nuclei staining) and number of virus infected cells (based on dsRNA and Nucleocapsid staining) was performed using the CellInsight CX7™ High Content Screening platform (Thermo Fisher™), as previously described (33042061). Shortly, nuclei are identified and counted using the 350′461 nm wavelength (Hoechst 33342™); cell debris and other particles are deducted based on a size filter tool. A Region of Interest (ROI, or “circle”) is then drawn around each host cell and validated against the bright field image to correspond with host cell membranes. The ROI encompasses the “spots”, where dsRNA (485/521 nm wavelength) and SARS-CoV-2 nucleocapsid (533/588 nm wavelength) are localized. Finally, the software (HCS Studio Cell Analysis Software™, version 4.0) identifies, counts and measures the pixel area and intensity of the spots within each circle. The fluorescent spot area measured within each cell (circle) is then added and quantified for each well. The total circle spot intensity of each well corresponds to the viral load, and is normalized to non-infected cells, and to cells infected with no compound. Nuclei stain (Hoechst 33342™) was used to quantify cell loss (due to cytotoxicity or loss of adherence), and to normalize the changes in viral load resulting from a decrease in cell numbers.

[6] = target: T1, casein kinase 2-alpha-1 (CK2a1) (Homo sapiens, UniProt P68400); experiment: In vitro phosphorylation of nucleocapsid peptides, ADP-Glo, CK2a1; format: biochemical; conditions: peptide ~250 μM, 250 μM ATP, 30 min at 30° C.; duplicate measurements
T1 construct: GST; purchased SignalChem C70-10G

[7] = target: T2, glycogen synthase kinase-3-beta (Homo sapiens, UniProt P49841); experiment: In vitro phosphorylation of nucleocapsid peptides, ADP-Glo, GSK3b; format: biochemical; conditions: for Relative Phosphorylation to No Kinase Control, GSK3b: Mean ± S.Dev. (n = 3), no kinase control = 100; for Relative Phosphorylation to Autophosphorylation Control (set at 100), GSK3b: peptide ~250 μM, 250 μM ATP, 30 min at 30° C., duplicate measurements
T2 construct: GST; purchased SignalChem Go9-10G

[8] = target: cAMP-dependent protein kinase catalytic subunit-alpha (PKACa) (Homo sapiens, UniProt P17612); experiment: In vitro phosphorylation of nucleocapsid peptides, ADP-Glo, PKACa; format: biochemical; conditions: peptide ~250 μM, 250 μM ATP, 30 min at 30° C.; duplicate measurements
[9] = target: T3, protein kinase C-alpha (PKC α) (Homo sapiens, UniProt P17252); experiment: In vitro phosphorylation of nucleocapsid peptides, ADP-Glo, PKCa; format: biochemical; conditions: for Relative Phosphorylation to No Kinase Control, PKCa: Mean ± S.Dev. (n = 3), no kinase control = 100; for Relative Phosphorylation to Autophosphorylation Control (set at 100), PKCa: peptide ~250 μM, 250 μM ATP, 30 min at 30° C., duplicate measurements
T3 construct: GST; purchased SignalChem P61-18G

[10] = target: cyclin-dependent kinase 2/cyclin A2 (CDK2/A2) (Homo sapiens, UniProt P24941); experiment: In vitro phosphorylation of nucleocapsid peptides, ADP-Glo, CDK2/cyclin A2; format: biochemical; conditions: peptide ~250 μM, 250 μM ATP, 30 min at 30° C.; duplicate measurements
[11] = target: T4, casein kinase 1-alpha-1 (CK1a1) (Homo sapiens, UniProt P48729); experiment: In vitro phosphorylation of nucleocapsid peptides, ADP-Glo, CK1a1; format: biochemical; conditions: peptide ~250 μM, 250 μM ATP, 30 min at 30° C.; duplicate measurements
T4 construct: GST; purchased SignalChem C64-10G

[12] = target: T5, casein kinase 1-delta (Homo sapiens, UniProt P48730); experiment: In vitro phosphorylation of nucleocapsid peptides, ADP-Glo, CK1d; format: biochemical; conditions: peptide ~250 μM, 250 μM ATP, 30 min at 30° C.; duplicate measurements
T5 construct: GST; purchased SignalChem C65-10G

[13] = target: T6, extracellularly-regulated kinase-1 (ERK1) (Homo sapiens, UniProt P27361); experiment: In vitro phosphorylation of nucleocapsid peptides, ADP-Glo, ERK1; format: biochemical; conditions: peptide ~250 μM, 250 μM ATP, 30 min at 30° C.; duplicate measurements
T6 construct: GST; purchased SignalChem M29-10G

[14] = system: PKCa + GSK3b; experiment: In vitro phosphorylation of nucleocapsid peptides, ADP-Glo, PKCa + GSK3b combined; format: biochemical, human; conditions: Mean ± S.Dev. (n = 3); no kinase control = 100
[15] = system: SARS-CoV-2; conditions: from reference [7]; read-out: IC50 to inhibit N protein phosphorylation and SARS-CoV-2 replication in cells; cited from earlier work
[16] = Z′ 0.3, read-out: SARS-CoV-2 inhibition (% dsRNA)
[17] = average of screens 1 and 2, read-out: Average SARS-CoV-2 Nucleocapsid inhibition
[18] = screen 1, Z′ 0.7, read-out: SARS-CoV-2 inhibition (% Nucleocapsid) 1
[19] = screen 2, Z′ 0.5, read-out: SARS-CoV-2 inhibition (% Nucleocapsid) 2

T2 sequence (P49841 whole entry): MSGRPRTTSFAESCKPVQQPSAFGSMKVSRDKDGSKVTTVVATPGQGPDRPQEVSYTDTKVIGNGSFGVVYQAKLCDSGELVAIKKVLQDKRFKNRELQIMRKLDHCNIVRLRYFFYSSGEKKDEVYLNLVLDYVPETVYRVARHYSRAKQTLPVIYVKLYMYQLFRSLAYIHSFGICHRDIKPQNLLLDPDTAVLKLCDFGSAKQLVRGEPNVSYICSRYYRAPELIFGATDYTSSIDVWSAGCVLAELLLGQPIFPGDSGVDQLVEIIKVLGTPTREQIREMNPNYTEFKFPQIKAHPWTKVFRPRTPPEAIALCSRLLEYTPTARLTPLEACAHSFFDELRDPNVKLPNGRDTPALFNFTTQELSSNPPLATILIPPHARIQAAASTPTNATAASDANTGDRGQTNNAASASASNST
T1 sequence (P68400 whole entry): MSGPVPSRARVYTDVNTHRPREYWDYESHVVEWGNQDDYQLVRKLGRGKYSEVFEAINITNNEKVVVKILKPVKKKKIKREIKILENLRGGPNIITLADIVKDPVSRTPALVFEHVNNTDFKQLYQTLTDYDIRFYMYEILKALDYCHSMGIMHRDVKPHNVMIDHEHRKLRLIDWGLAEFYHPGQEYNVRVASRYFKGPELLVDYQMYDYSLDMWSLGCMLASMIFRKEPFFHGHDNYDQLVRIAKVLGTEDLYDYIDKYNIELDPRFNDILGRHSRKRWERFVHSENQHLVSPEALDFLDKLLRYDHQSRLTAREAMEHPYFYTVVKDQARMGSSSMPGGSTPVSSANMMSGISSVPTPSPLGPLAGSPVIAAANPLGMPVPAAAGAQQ
T5 sequence (P48730 whole entry): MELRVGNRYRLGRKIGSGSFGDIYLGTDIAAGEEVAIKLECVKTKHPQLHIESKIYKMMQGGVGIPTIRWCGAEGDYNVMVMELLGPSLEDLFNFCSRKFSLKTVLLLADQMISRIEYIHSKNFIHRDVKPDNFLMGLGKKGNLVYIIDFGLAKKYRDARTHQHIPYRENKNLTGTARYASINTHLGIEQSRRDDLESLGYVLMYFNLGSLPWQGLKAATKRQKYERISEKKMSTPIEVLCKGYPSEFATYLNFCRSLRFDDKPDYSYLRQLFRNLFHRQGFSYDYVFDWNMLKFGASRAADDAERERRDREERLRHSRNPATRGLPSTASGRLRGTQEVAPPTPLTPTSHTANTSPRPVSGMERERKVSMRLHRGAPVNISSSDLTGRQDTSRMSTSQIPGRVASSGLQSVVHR
T4 sequence (P48729 whole entry): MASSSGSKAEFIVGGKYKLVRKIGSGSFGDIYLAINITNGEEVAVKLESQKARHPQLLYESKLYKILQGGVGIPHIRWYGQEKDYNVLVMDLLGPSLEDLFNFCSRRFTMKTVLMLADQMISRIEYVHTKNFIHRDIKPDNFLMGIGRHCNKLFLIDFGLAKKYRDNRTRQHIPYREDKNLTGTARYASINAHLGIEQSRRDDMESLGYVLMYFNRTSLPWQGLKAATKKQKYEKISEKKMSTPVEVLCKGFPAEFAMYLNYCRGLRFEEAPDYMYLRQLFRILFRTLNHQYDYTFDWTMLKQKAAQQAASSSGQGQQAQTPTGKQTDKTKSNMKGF
T6 sequence (P27361 whole entry): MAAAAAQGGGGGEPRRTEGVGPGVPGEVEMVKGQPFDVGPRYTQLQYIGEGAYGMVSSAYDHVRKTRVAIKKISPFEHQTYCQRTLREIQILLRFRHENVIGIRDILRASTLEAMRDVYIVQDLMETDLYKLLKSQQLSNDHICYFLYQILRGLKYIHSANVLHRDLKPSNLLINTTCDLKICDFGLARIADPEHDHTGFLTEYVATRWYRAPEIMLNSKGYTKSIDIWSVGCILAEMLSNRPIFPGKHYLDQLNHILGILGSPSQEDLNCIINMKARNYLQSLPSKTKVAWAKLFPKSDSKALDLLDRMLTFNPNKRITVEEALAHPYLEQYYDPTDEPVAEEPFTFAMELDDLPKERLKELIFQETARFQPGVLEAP

## C[S+]([O-])c1ccc(-c2coc3ccc(-c4nnc(SCc5cccc(F)c5)o4)cc23)cc1 (stereo not shown) [Compound P-7657632]
[1]
  inhibition at 10 µM: 100%
[2]; [16]
  inhibition at 10 µM: 100%
[2]; [17]
  inhibition at 10 µM: 93.1%
[2]; [18]
  inhibition at 10 µM: 100%
[2]; [19]
  inhibition at 10 µM: 86.2%
[3]
  EC50: ~3 µM
[4]
  EC50: ~3 µM
[5]
  Average cell loss (%): 25.4%

## SQASSRSSSR(pS)RNS (SQASSRSSSR[pS]RNS) [SCV2-N [180-193]-pS190, synthetic peptide modeled after SARS-CoV-2 nucleocapsid protein phosphorylation sites, pre-phosphorylated at S190]
[6]
  Relative Phosphorylation to Autophosphorylation Control (set at 100), CK2a1: 100
[7]
  Relative Phosphorylation to No Kinase Control, GSK3b: 2957 ± 3
  Relative Phosphorylation to Autophosphorylation Control (set at 100), GSK3b: 111
[8]
  Relative Phosphorylation to Autophosphorylation Control (set at 100), PKACa: 312
[9]
  Relative Phosphorylation to No Kinase Control, PKCa: 4161 ± 66
  Relative Phosphorylation to Autophosphorylation Control (set at 100), PKCa: 418

## CSc1ccc(-c2coc3ccc(-c4nnc(N)o4)cc23)cc1Cl [Compound P-9071942]
[1]
  inhibition at 10 µM: 94.2%
[2]; [16]
  inhibition at 10 µM: 100%
[2]; [17]
  inhibition at 10 µM: 94.5%
[2]; [18]
  inhibition at 10 µM: 100%
[2]; [19]
  inhibition at 10 µM: 89.1%
[3]
  EC50: ~3 µM
[4]
  EC50: ~3 µM
[5]
  Average cell loss (%): 29.9%

## SSRSRNSSRNSTPG [SCV2-N [187-200], synthetic peptide modeled after SARS-CoV-2 nucleocapsid protein phosphorylation sites]
[10]
  Relative Phosphorylation to Autophosphorylation Control (set at 100), CDK2 + Cyclin A2: 100
[11]
  Relative Phosphorylation to Autophosphorylation Control (set at 100), CK1a1: 145
[12]
  Relative Phosphorylation to Autophosphorylation Control (set at 100), CK1d: 100
[6]
  Relative Phosphorylation to Autophosphorylation Control (set at 100), CK2a1: 103
[13]
  Relative Phosphorylation to Autophosphorylation Control (set at 100), ERK1: 100
[7]
  Relative Phosphorylation to No Kinase Control, GSK3b: 2573 ± 49
  Relative Phosphorylation to Autophosphorylation Control (set at 100), GSK3b: 108
[8]
  Relative Phosphorylation to Autophosphorylation Control (set at 100), PKACa: 485
[9]
  Relative Phosphorylation to No Kinase Control, PKCa: 12,687 ± 486
  Relative Phosphorylation to Autophosphorylation Control (set at 100), PKCa: 1080
[14]
  Relative Phosphorylation to No Kinase Control, PKCa + GSK3b: 3692 ± 61

## SSRSRNSSRNS(pT)PG (SSRSRNSSRNS[pT]PG) [SCV2-N [187-200]-pT198, synthetic peptide modeled after SARS-CoV-2 nucleocapsid protein phosphorylation sites, pre-phosphorylated at T198]
[10]
  Relative Phosphorylation to Autophosphorylation Control (set at 100), CDK2 + Cyclin A2: 101
[11]
  Relative Phosphorylation to Autophosphorylation Control (set at 100), CK1a1: 250
[12]
  Relative Phosphorylation to Autophosphorylation Control (set at 100), CK1d: 152
[6]
  Relative Phosphorylation to Autophosphorylation Control (set at 100), CK2a1: 102
[13]
  Relative Phosphorylation to Autophosphorylation Control (set at 100), ERK1: 100
[7]
  Relative Phosphorylation to No Kinase Control, GSK3b: 23,031 ± 486
  Relative Phosphorylation to Autophosphorylation Control (set at 100), GSK3b: 1042
[8]
  Relative Phosphorylation to Autophosphorylation Control (set at 100), PKACa: 157
[9]
  Relative Phosphorylation to No Kinase Control, PKCa: 7032 ± 319
  Relative Phosphorylation to Autophosphorylation Control (set at 100), PKCa: 553

## [Cl-].[Li+] [Lithium chloride]
[15]
  IC50: 10000 µM

## Cc1nnc(-c2ccc3occ(-c4ccc([S+](C)[O-])c(OC(F)(F)F)c4)c3c2)o1 (stereo not shown) [Compound P-5782442]
[1]
  inhibition at 10 µM: 60%
[2]; [16]
  inhibition at 10 µM: 100%
[2]; [17]
  inhibition at 10 µM: 93.8%
[2]; [18]
  inhibition at 10 µM: 93.3%
[2]; [19]
  inhibition at 10 µM: 94.4%
[2]
  Activity (SARS-CoV-2): active (see TABLE A)
[5]
  Average cell loss (%): 16.1%

## CSc1ccc(-n2cnc3ccc(-c4nnc(CCc5cccc(C(F)(F)F)c5)o4)cc32)cc1 [Compound P-3817632]
[1]
  inhibition at 10 µM: 87.7%
[2]; [16]
  inhibition at 10 µM: 100%
[2]; [17]
  inhibition at 10 µM: 71.4%
[2]; [18]
  inhibition at 10 µM: 70.8%
[2]; [19]
  inhibition at 10 µM: 72%
[2]
  Activity (SARS-CoV-2): active (see TABLE A)
[5]
  Average cell loss (%): 12.7%
